From US20110065694A1 (priority 2009, published 2011) come the findings set out here.

For orientation: IC50 means the concentration needed to halve the response being measured.

This assay concerns the target human histamine H3 receptor (Homo sapiens, UniProt Q9Y5N1). The experiment in a line: H3 GTPγS assay (SPA method), histamine H3 in vitro assay. It counts as biochemical. As for the experimental part:
Briefly, cells expressing the human histamine H3 receptor were homogenized in 15 mM Tris-HCl pH 7.5, 2 mM MgCl2, 0.3 mM EDTA, and 1 mM EGTA. […] Membranes were frozen in liquid nitrogen until use. On the day of the assay, membranes were thawed and diluted in assay buffer (20 mM HEPES pH 7.4, 100 mM NaCl, 10 μg/ml saponin, 1 mM MgCl2) to give 500 μg/ml and mixed (v/v) with GDP in assay buffer for a final GDP concentration of 10 μM and incubated on ice for at least […]. PVT-WGA beads (Amersham, RPNQ001) were diluted in assay buffer at 50 mg/mL and mixed with GTPγ[^35S] (Amersham, SJ1308) diluted in assay buffer to give ˜25,000 dpm/10 μL and mixed vol/vol just before the start of the reaction.
For antagonists testing, 10 μL of a reference agonist ([…]) instead of 10 μL buffer was added at a concentration corresponding to the EC80 (30 nM).
The compounds provided herein were tested in the histamine H3 in vitro assay. In one embodiment, the respective HCl salts of the compounds provided herein were prepared using standard chemical procedures and tested in the histamine H3 in vitro assay.

Setting [1] is: membranes of cells expressing human H3, GTPγ[35S] SPA, antagonist testing with reference agonist at EC80 (30 nM), in one embodiment HCl salts tested, read-out: Potency (functional potency as indicated by IC50).

Each structure is given as a SMILES string. Read-outs that look alike come from different tables or passages of the source.

human histamine H3 receptor, sequence (Q9Y5N1 whole entry): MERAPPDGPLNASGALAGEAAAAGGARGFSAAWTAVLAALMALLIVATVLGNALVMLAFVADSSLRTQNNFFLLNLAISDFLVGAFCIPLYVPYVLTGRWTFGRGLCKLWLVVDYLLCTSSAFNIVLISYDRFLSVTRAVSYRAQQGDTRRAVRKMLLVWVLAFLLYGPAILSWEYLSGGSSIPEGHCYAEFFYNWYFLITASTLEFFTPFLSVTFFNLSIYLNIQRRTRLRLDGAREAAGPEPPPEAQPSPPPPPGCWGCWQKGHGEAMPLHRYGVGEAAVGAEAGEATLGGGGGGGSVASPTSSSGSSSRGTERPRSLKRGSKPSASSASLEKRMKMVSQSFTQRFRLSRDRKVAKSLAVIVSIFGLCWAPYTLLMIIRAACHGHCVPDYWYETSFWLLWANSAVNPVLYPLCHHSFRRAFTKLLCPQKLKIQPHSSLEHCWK

Take `CC(=O)Nc1ccc(-c2ccc3c(c2)nc2n3C3CCC2CN(C2CCC2)C3)cc1` (centres unmarked) [Compound 27, N-(4-(3-cyclobutyl-2,3,4,5-tetrahydro-1H-1,5-ethanobenzo[4,5]imidazo[1,2-d][1,4]diazepin-8-yl)phenyl)acetamide]: the IC50 under setting [1] is less than 0.1 µM.

As to `c1cc2cc(-c3ccc4c(c3)nc3n4C4CCC3CN(C3CCC3)C4)ccc2[nH]1` (centres unmarked) [Compound 28, 3-cyclobutyl-8-(1H-indol-5-yl)-2,3,4,5-tetrahydro-1H-1,5-ethanobenzo[4,5]imidazo[1,2-d][1,4]diazepine], under setting [1], the IC50 is more than 1 µM.

In the case of `c1coc(-c2ccc3c(c2)nc2n3C3CCC2CN(C2CCC2)C3)c1` (centres unmarked) [Compound 29, 3-cyclobutyl-8-(furan-2-yl)-2,3,4,5-tetrahydro-1H-1,5-ethanobenzo[4,5]imidazo[1,2-d][1,4]diazepine], the concentration for half-maximal inhibition (IC50) under setting [1] was less than 1 µM.

`c1cnc(-c2ccc3c(c2)nc2n3C3CCC2CN(C2CCC2)C3)cn1` (centres unmarked) [Compound 30, 3-cyclobutyl-8-(pyrazin-2-yl)-2,3,4,5-tetrahydro-1H-1,5-ethanobenzo[4,5]imidazo[1,2-d][1,4]diazepine]: under setting [1], the 50% inhibitory concentration (IC50) is less than 0.1 µM.

Regarding `NCc1ccc(-c2ccc3c(c2)nc2n3C3CCC2CN(C2CCC2)C3)cc1` (centres unmarked) [Compound 31, (4-(3-cyclobutyl-2,3,4,5-tetrahydro-1H-1,5-ethanobenzo[4,5]imidazo[1,2-d][1,4]diazepin-8-yl)phenyl)methanamine], the IC50 was less than 0.1 µM.

For `Clc1ccc2c(c1)nc1n2C2CC(C1)N(C1CCC1)C2` (centres unmarked) [Compound 32, 8-chloro-3-cyclobutyl-2,3,4,5-tetrahydro-1H-1,4-methanobenzo[4,5]imidazo[1,2-d][1,4]diazepine], the IC50 under setting [1] was more than 1 µM.

Regarding `N#Cc1ccc(-c2ccc3c(c2)nc2n3C3CC(C2)N(C2CCC2)C3)cc1` (centres unmarked) [Compound 33, 4-(3-cyclobutyl-2,3,4,5-tetrahydro-1H-1,4-methanobenzo[4,5]imidazo[1,2-d][1,4]diazepin-8-yl)benzonitrile], the IC50 under setting [1] is less than 1 µM.

Consider `c1cn2cc(-c3ccc4c(c3)nc3n4C4CC(C3)N(C3CCC3)C4)ccc2n1` (centres unmarked) [Compound 34, 3-cyclobutyl-8-(imidazo[1,2-a]pyridin-6-yl)-2,3,4,5-tetrahydro-1H-1,4-methanobenzo[4,5]imidazo[1,2-d][1,4]diazepine], for which, under setting [1], the IC50 was less than 1 µM.

In the case of `Clc1ccc2c(c1)nc1n2CC2CC1CN2C1CCC1` (centres unmarked) [Compound 35, 8-chloro-3-cyclobutyl-2,3,4,5-tetrahydro-1H-2,5-methanobenzo[4,5]imidazo[1,2-d][1,4]diazepine], the IC50 under setting [1] is less than 1 µM.

Turning to `N#Cc1ccc(-c2ccc3c(c2)nc2n3CC3CC2CN3C2CCC2)cc1` (centres unmarked) [Compound 36, 4-(3-cyclobutyl-2,3,4,5-tetrahydro-1H-2,5-methanobenzo[4,5]imidazo[1,2-d][1,4]diazepin-8-yl)benzonitrile], the IC50 under setting [1] is less than 1 µM.

Turning to `c1cn2cc(-c3ccc4c(c3)nc3n4CC4CC3CN4C3CCC3)ccc2n1` (centres unmarked) [Compound 37, 3-cyclobutyl-8-(imidazo[1,2-a]pyridin-6-yl)-2,3,4,5-tetrahydro-1H-2,5-methanobenzo[4,5]imidazo[1,2-d][1,4]diazepine], the IC50 under setting [1] is more than 1 µM.

Take `c1ccc2c(c1)ncn2-c1ccc2c(c1)nc1n2CC2CC1CN2C1CCC1` (centres unmarked) [Compound 38, 8-(1H-benzo[d]imidazol-1-yl)-3-cyclobutyl-2,3,4,5-tetrahydro-1H-2,5-methanobenzo[4,5]imidazo[1,2-d][1,4]diazepine]: under setting [1], the half-maximal inhibitory concentration (IC50) is less than 1 µM.

As to `c1cc2c(cc1CN1CCOCC1)nc1n2CC2CC1CN2C1CCC1` (centres unmarked) [Compound 39, 4-((3-cyclobutyl-2,3,4,5-tetrahydro-1H-2,5-methanobenzo[4,5]imidazo[1,2-d][1,7]diazepin-8-yl)methyl)morpholine], the IC50 under setting [1] was more than 1 µM.

For the compound `CC1Cc2nc3cc(Br)ccc3n2CCN1C1CCC1` (centres unmarked) [Compound 40, 8-bromo-3-cyclobutyl-4-methyl-2,3,4,5-tetrahydro-1H-benzo[4,5]imidazo[1,2-d][1,4]diazepine], the IC50 under setting [1] is less than 0.1 µM.

With `CC1Cc2nc3cc(-c4ccc(C#N)cc4)ccc3n2CCN1C1CCC1` (centres unmarked) [Compound 41, 4-(3-cyclobutyl-4-methyl-2,3,4,5-tetrahydro-1H-benzo[4,5]imidazo[1,2-d][1,4]diazepin-8-yl)benzonitrile], the IC50 under setting [1] is less than 0.01 µM.

With `CC1Cn2c(nc3cc(Br)ccc32)CCN1C1CCC1` (centres unmarked) [Compound 42, 8-bromo-3-cyclobutyl-2-methyl-2,3,4,5-tetrahydro-1H-benzo[4,5]imidazo[1,2-d][1,4]diazepine], the IC50 under setting [1] was less than 1 µM.

With `CC1Cn2c(nc3cc(-c4ccc(C#N)cc4)ccc32)CCN1C1CCC1` (centres unmarked) [Compound 43, 4-(3-cyclobutyl-2-methyl-2,3,4,5-tetrahydro-1H-benzo[4,5]imidazo[1,2-d][1,4]diazepin-8-yl)benzonitrile], the IC50 under setting [1] was less than 0.1 µM.

Regarding `c1cn2cc(-c3ccc4c(c3)nc3n4CCN4CCCC[C@H]4C3)ccc2n1` [Compound 49, (S)-11-(imidazo[1,2-a]pyridin-6-yl)-1,2,3,4,6,7,14,14a-octahydrobenzo[4,5]imidazo[1,2-d]pyrido[2,1-g][1,4]diazepine], under setting [1], the IC50 is less than 0.1 µM.

`Brc1ccc2c(c1)nc1n2CCN(C2CCC2)C1` [Compound 52, 8-bromo-2-cyclobutyl-1,2,3,4-tetrahydrobenzo[4,5]imidazo[1,2-a]pyrazine]: the IC50 under setting [1] was more than 1 µM.

`N#Cc1ccc(-c2ccc3c(c2)nc2n3CCN(C3CCC3)C2)cc1` [Compound 53, 4-(2-cyclobutyl-1,2,3,4-tetrahydrobenzo-[4,5]imidazo[1,2-a]pyrazin-8-yl)benzonitrile]: the IC50 under setting [1] is less than 1 µM.

Consider `c1cn2cc(-c3ccc4c(c3)nc3n4CCN(C4CCC4)C3)ccc2n1` [Compound 54, 2-cyclobutyl-8-(imidazo[1,2-a]pyridin-6-yl)-1,2,3,4-tetrahydrobenzo[4,5]imidazo[1,2-a]pyrazine], for which, under setting [1], the IC50 is less than 1 µM.

With `c1ccc2c(c1)ncn2-c1ccc2c(c1)nc1n2CCN(C2CCC2)C1` [Compound 55, 8-(1H-benzo[d]imidazol-1-yl)-2-cyclobutyl-1,2,3,4-tetrahydrobenzo[4,5]imidazo[1,2-a]pyrazine], the IC50 under setting [1] is less than 1 µM.

Turning to `c1cc2c(cc1CN1CCOCC1)nc1n2CCN(C2CCC2)C1` [Compound 56, 4-((2-cyclobutyl-1,2,3,4-tetrahydrobenzo-[4,5]imidazo[1,2-a]pyrazin-8-yl)methyl)morpholine], under setting [1], the 50% inhibitory concentration (IC50) was less than 0.01 µM.

On to `Clc1ccc2c(c1)nc1n2CCCN(C2CCC2)CC1` [Compound 57, 10-chloro-3-cyclobutyl-1,2,3,4,5,6-hexahydrobenzo[4,5]imidazo[1,2-a][1,5]diazocine], for which the IC50 under setting [1] was less than 0.1 µM.

Turning to `N#Cc1ccc(-c2ccc3c(c2)nc2n3CCCN(C3CCC3)CC2)cc1` [Compound 58, 4-(3-cyclobutyl-1,2,3,4,5,6-hexahydrobenzo[4,5]imidazo[1,2-a][1,5]diazocin-10-yl)benzonitrile], the IC50 under setting [1] was less than 0.01 µM.

Consider `c1cn2cc(-c3ccc4c(c3)nc3n4CC4CCC(C3)N4C3CCC3)ccc2n1` (centres unmarked) [Compound 60, 13-cyclobutyl-3-(imidazo[1,2-a]pyridin-6-yl)-6,7,8,9,10,11-hexahydro-7,10-epiminobenzo[4,5]imidazo[1,2-a]azocine], for which the IC50 under setting [1] is less than 0.01 µM.
